Measured values reported in patent US20200405696A1, “INHIBITORS OF INDOLEAMINE 2,3-DIOXYGENASE AND/OR TRYPTOPHAN 2,3-DIOXYGENASE” (IDORSIA PHARMACEUTICALS LTD, priority 2018, published 2020).

How the values were obtained:
[1] = target: T1, Recombinant full-length human IDO1 (Homo sapiens, UniProt P14902); test: IDO1 enzymatic assay (NFK quantified by LCMS); format: biochemical; details: 2 nM enzyme, 5 μM L-tryptophan, pH6.5, 30 minutes pre-incubation at RT; mean values when measured multiple times; read-out: hIDO activity (IC50 in nM)
T1 construct: Recombinant full-length human IDO1 with a N-terminal hexahistidine tag; hexahistidine (His6) (N); made in house; host or cells: E. coli
Method in brief: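 IC50 comes from four-parameter logistic fits of duplicate data, with NFK quantified by LCMS and normalized to L-Trp-(indole-d5). Compound (0.5 nM–10 μM) was preincubated 30 min at RT with 2 nM E. coli-expressed IDO1 before a 30 min reaction with 5 μM tryptophan in pH 6.5 buffer containing ascorbate and methylene blue.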

[2] = target: T2, Recombinant human TDO comprising amino acids 19-407 (Homo sapiens, UniProt P48775); test: TDO2 enzymatic assay (NFK quantified by LCMS); format: biochemical; details: 15 nM enzyme, 200 μM L-tryptophan, pH7, 30 minutes pre-incubation at RT; mean values when measured multiple times; read-out: hTDO activity (IC50 in nM)
T2 construct: Recombinant human TDO comprising amino acids 19-407 with a N-terminal hexahistidine tag; hexahistidine (His6) (N); made in house; host or cells: E. coli
Method in brief: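 NFK formed over 30 min at RT from 200 μM L-tryptophan was measured by LCMS, normalized to d5-tryptophan, after compound (0.5 nM–10 μM, duplicates, 0.6% DMSO) was preincubated 30 min with 15 nM recombinant His-tagged TDO 19-407 in phosphate buffer pH 7. IC50 from four-parameter logistic fit; repeats averaged.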

T1 sequence (P14902 whole entry): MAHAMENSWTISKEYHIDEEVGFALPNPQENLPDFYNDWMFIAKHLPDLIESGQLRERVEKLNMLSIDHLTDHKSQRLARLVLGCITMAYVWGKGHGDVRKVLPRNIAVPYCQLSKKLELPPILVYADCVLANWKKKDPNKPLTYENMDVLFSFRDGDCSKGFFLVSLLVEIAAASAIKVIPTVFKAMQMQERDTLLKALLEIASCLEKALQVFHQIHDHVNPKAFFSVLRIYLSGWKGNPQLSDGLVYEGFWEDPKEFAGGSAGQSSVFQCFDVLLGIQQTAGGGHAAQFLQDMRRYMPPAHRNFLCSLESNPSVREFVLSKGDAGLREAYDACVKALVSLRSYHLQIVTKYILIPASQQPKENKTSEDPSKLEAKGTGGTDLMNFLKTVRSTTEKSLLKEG
T2 sequence (P48775 19-406 limits assumed): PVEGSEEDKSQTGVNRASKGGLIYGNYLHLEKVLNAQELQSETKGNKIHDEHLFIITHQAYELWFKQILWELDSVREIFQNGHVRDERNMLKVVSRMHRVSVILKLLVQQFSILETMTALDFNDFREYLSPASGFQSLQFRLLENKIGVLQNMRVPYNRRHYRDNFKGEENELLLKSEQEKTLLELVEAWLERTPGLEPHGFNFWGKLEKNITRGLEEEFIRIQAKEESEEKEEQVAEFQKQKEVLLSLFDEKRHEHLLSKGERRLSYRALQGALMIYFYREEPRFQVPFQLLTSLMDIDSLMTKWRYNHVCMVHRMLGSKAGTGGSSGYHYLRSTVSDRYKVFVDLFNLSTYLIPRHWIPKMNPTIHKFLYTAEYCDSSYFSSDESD

Compound | IC50 [1] | IC50 [2]
CC1NS(=O)(=O)c2ccc(-n3cc(C(O)c4c(C5CC5)sc5cncn45)nn3)cc21 (centres unmarked) [Example 228, (2-Cyclopropyl-imidazo[5,1-b]thiazol-3-yl)-[1-(3-methyl-1,1-dioxo-2,3-dihydro-1H-1I6-benzo[d]isothiazol-5-yl)-1H-[1,2,3]triazol-4-yl]-methanol] | 76.1 nM | > 10200 nM
Cc1ccc(-n2cc(C(O)c3c(C4CC4)sc4cncn34)nn2)cc1O (racemic) [Example 218, rac-5-{4-[(2-Cyclopropyl-imidazo[5,1-b]thiazol-3-yl)-hydroxy-methyl]-[1,2,3]triazol-1-yl}-2-methyl-phenol] | 24.1 nM | > 10200 nM
CCOC(=O)COc1ccc(-n2cc(C(O)c3c(C4CC4)sc4cncn34)nn2)cc1 (racemic) [Example 231, rac-(4-{4-[(2-Cyclopropyl-imidazo[5,1-b]thiazol-3-yl)-hydroxy-methyl]-[1,2,3]triazol-1-yl}-phenoxy)-acetic acid ethyl ester] | 22.3 nM | > 10200 nM
OC(c1ccc(-c2ccc3[nH]ccc3c2)s1)c1c(C2CC2)sc2cncn12 (racemic) [Example 176, rac-(2-Cyclopropyl-imidazo[5,1-b]thiazol-3-yl)-[5-(1H-indol-5-yl)-thiophen-2-yl]-methanol] | 260 nM | > 10200 nM
CCc1sc2cncn2c1C(O)c1cn(-c2ccc(NC(=O)C(C)(C)C)cc2)nn1 (racemic) [Example 120, rac-N-(4-{4-[(2-Ethyl-imidazo[5,1-b]thiazol-3-yl)-hydroxy-methyl]-[1,2,3]triazol-1-yl}-phenyl)-2,2-dimethyl-propionamide] | 11 nM | > 10200 nM
N#CCCNC(=O)c1ccc(-n2cc(C(O)c3c(C4CC4)sc4cncn34)nn2)cc1 (racemic) [Example 108, rac-N-(2-Cyano-ethyl)-4-{4-[(2-cyclopropyl-imidazo[5,1-b]thiazol-3-yl)-hydroxy-methyl]-[1,2,3]triazol-1-yl}-benzamide] | 10 nM | > 10200 nM
CCc1sc2cncn2c1C(O)c1cn(-c2ccc(NC(=O)N3CCOCC3)cc2)nn1 (racemic) [Example 121, rac-Morpholine-4-carboxylic acid (4-{4-[(2-ethyl-imidazo[5,1-b]thiazol-3-yl)-hydroxy-methyl]-[1,2,3]triazol-1-yl}-phenyl)-amide] | 32 nM | 7720 nM
COc1ccc(-c2ccc(C(O)c3c(C4CC4)sc4cncn34)s2)cc1 (racemic) [Example 161, rac-(2-Cyclopropyl-imidazo[5,1-b]thiazol-3-yl)-[5-(4-methoxy-phenyl)-thiophen-2-yl]-methanol] | 257 nM | > 10200 nM
OC(c1cn(-c2ccc(OCc3ccccc3)nc2)nn1)c1c(C2CC2)sc2cncn12 (racemic) [Example 77, rac-[1-(6-Benzyloxy-pyridin-3-yl)-1H-[1,2,3]triazol-4-yl]-(2-cyclopropyl-imidazo[5,1-b]thiazol-3-yl)-methanol] | 32.7 nM | > 10200 nM
CCNS(=O)(=O)c1ccc(-n2cc(C(O)c3c(CC)sc4cncn34)nn2)cc1 (racemic) [Example 244, rac-N-Ethyl-4-{4-[(2-ethyl-imidazo[5,1-b]thiazol-3-yl)-hydroxy-methyl]-[1,2,3]triazol-1-yl}-benzenesulfonamide] | 47.2 nM | > 10200 nM
COc1ccc(-n2cc(C(O)c3c(C4CC4)sc4cncn34)nn2)cc1O (racemic) [Example 216, rac-5-{4-[(2-Cyclopropyl-imidazo[5,1-b]thiazol-3-yl)-hydroxy-methyl]-[1,2,3]triazol-1-yl}-2-methoxy-phenol] | 29.1 nM | > 10200 nM
Cc1c(C(O)c2c(C3CC3)sc3cncn23)nnn1-c1ccccc1 (racemic) [Example 101, rac-(2-Cyclopropyl-imidazo[5,1-b]thiazol-3-yl)-(5-methyl-1-phenyl-1H-[1,2,3]triazol-4-yl)-methanol] | 17 nM | 7150 nM
O=S(=O)(c1ccc(-n2cc(C(O)c3c(C4CC4)sc4cncn34)nn2)cc1)N1CCCC1 (racemic) [Example 237, rac-(2-Cyclopropyl-imidazo[5,1-b]thiazol-3-yl)-{1-[4-(pyrrolidine-1-sulfonyl)-phenyl]-1H-[1,2,3]triazol-4-yl}-methanol] | 155 nM | > 10200 nM
OC(c1ncc(-c2ccccc2)s1)c1c(C2CC2)sc2cncn12 (racemic) [Example 171, rac-(2-Cyclopropyl-imidazo[5,1-b]thiazol-3-yl)-(5-phenyl-thiazol-2-yl)-methanol] | 578 nM | > 10200 nM
CCc1sc2cncn2c1C(O)c1cn(-c2ccc(S(=O)(=O)N3CCCC3)cc2)nn1 (racemic) [Example 242, rac-(2-Ethyl-imidazo[5,1-b]thiazol-3-yl)-{1-[4-(pyrrolidine-1-sulfonyl)-phenyl]-1H-[1,2,3]triazol-4-yl}-methanol] | 139 nM | > 10200 nM
CCNC(=O)c1ccc(-n2cc(C(O)c3c(CC)sc4cncn34)nn2)cc1 (racemic) [Example 128, rac-N-Ethyl-4-{4-[(2-ethyl-imidazo[5,1-b]thiazol-3-yl)-hydroxy-methyl]-[1,2,3]triazol-1-yl}-benzamide] | 16.5 nM | 9780 nM
Cc1sc2cncn2c1C(O)c1cn(-c2ccc(C3(CO)CC3)cc2)nn1 (racemic) [Example 57, rac-{1-[4-(1-Hydroxymethyl-cyclopropyl)-phenyl]-1H-[1,2,3]triazol-4-yl}-(2-methyl-imidazo[5,1-b]thiazol-3-yl)-methanol] | 391 nM | > 10200 nM
COCCCNC(=O)c1ccc(-n2cc(C(O)c3c(C4CC4)sc4cncn34)nn2)cc1 (racemic) [Example 106, rac-4-{4-[(2-Cyclopropyl-imidazo[5,1-b]thiazol-3-yl)-hydroxy-methyl]-[1,2,3]triazol-1-yl}-N-(3-methoxy-propyl)-benzamide] | 19.6 nM | > 10200 nM
CCc1sc2cncn2c1C(O)c1cn(-c2ccc(NC(=O)OC)cc2)nn1 (racemic) [Example 49, rac-(4-{4-[(2-Ethyl-imidazo[5,1-b]thiazol-3-yl)-hydroxy-methyl]-[1,2,3]triazol-1-yl}-phenyl)-carbamic Acid Methyl Ester] | 10.9 nM | 2110 nM
Cc1sc2cncn2c1C(O)c1cn(-c2ccc(OCC3CC3)cc2)nn1 (racemic) [Example 63, rac-[1-(4-Cyclopropylmethoxy-phenyl)-1H-[1,2,3]triazol-4-yl]-(2-methyl-imidazo[5,1-b]thiazol-3-yl)-methanol] | 27.7 nM | > 10200 nM

The next lines start with the values.

IC50 [1] | IC50 [2] | Compound
71.3 nM | > 10200 nM | Oc1ccccc1Cn1cc(C(O)c2c(C3CC3)sc3cncn23)nn1 (racemic) [Example 305, rac-2-{4-[(2-Cyclopropyl-imidazo[5,1-b]thiazol-3-yl)-hydroxy-methyl]-[1,2,3]triazol-1-ylmethyl}-phenol]
10.2 nM | > 10200 nM | CC(F)(F)c1sc2cncn2c1C(O)c1cn(-c2ccc(OCCCO)c(Cl)c2)nn1 (racemic) [Example 314, rac-3-[2-Chloro-4-(4-{[2-(1,1-difluoro-ethyl)-imidazo[5,1-b]thiazol-3-yl]-hydroxy-methyl}-[1,2,3]triazol-1-yl)-phenoxy]-propan-1-ol]
31.3 nM | 8140 nM | COc1ccc(-n2cc(C(O)c3c(C4CC4)sc4cncn34)cn2)cc1C#N (racemic) [Example 247, rac-5-{4-[(2-Cyclopropyl-imidazo[5,1-b]thiazol-3-yl)-hydroxy-methyl]-pyrazol-1-yl}-2-methoxy-benzonitrile]
12.1 nM | 7280 nM | COc1ccc(-n2nnc(C(O)c3c(C4CC4)sc4cncn34)c2I)cc1 (racemic) [Example 334, rac-(2-Cyclopropyl-imidazo[5,1-b]thiazol-3-yl)-[5-iodo-1-(4-methoxy-phenyl)-1H-[1,2,3]triazol-4-yl]-methanol]
50.1 nM | > 10200 nM | OCc1ccc(-n2cc(C(O)c3c(C4CC4)sc4cncn34)nn2)cc1 (racemic) [Example 310, rac-(2-Cyclopropyl-imidazo[5,1-b]thiazol-3-yl)-[1-(4-hydroxymethyl-phenyl)-1H-[1,2,3]triazol-4-yl]-methanol]
7.12 nM | > 10200 nM | CC(C)(O)CCOc1ccc(-n2cc([C@H](O)c3c(C4CC4)sc4cncn34)nn2)cc1Cl [Example 277, 4-(2-Chloro-4-{4-[(R)-(2-cyclopropyl-imidazo[5,1-b]thiazol-3-yl)-hydroxy-methyl]-[1,2,3]triazol-1-yl}-phenoxy)-2-methyl-butan-2-ol]
273 nM | > 10200 nM | CC(C)C(=O)Nc1ccc(-n2cc(C(O)c3c(C4CC4)sc4cncn34)nn2)cc1Cl (racemic) [Example 284, rac-N-(2-Chloro-4-{4-[(2-cyclopropyl-imidazo[5,1-b]thiazol-3-yl)-hydroxy-methyl]-[1,2,3]triazol-1-yl}-phenyl)-isobutyramide]
17.2 nM | > 10200 nM | OC(c1cn(-c2ccc3[nH]ncc3c2)nn1)c1c(C2CC2)sc2cncn12 (racemic) [Example 253, rac-(2-Cyclopropyl-imidazo[5,1-b]thiazol-3-yl)-[1-(1H-indazol-5-yl)-1H-[1,2,3]triazol-4-yl]-methanol]
